Assay results as given in US20230183798A1, “COMPOSITIONS AND METHODS FOR MODIFYING POLYMERASE-NUCLEIC ACID COMPLEXES” (Pacific Biosciences of California, Inc., priority 2020, published 2023).

Key:
[1] = system: polymerase-nucleic acid complexes (ternary complexes); assay: Stripping nucleotides from ternary complexes: crosstalk metrics after NSB wash in 2x2 examination sequencing; type: biochemical; conditions: for Capability of stripping nucleotides from ternary complexes while retaining polymerase on primed-template nucleic acid: candidate in NSB; for Overall performance of NSB having candidate vs NSB having isopropanol: vs 20% v/v isopropanol (SOP) NSB; for A_T crosstalk (Cy5-dATP carryover from first exam into second exam) compared to NSB having isopropanol / C_G crosstalk (carryover of C signal from first exam into G channel of second exam) compared to NSB having isopropanol: alternating cycles vs 20% v/v isopropanol (SOP); for Concentration range in NSB found effective: other concentrations tested in addition to Table 1
Method: Template nucleic acid strands synthesized in 12 PCR reactions were prepared, and then independently bound to beads. […] Beads harboring immobilized template strands were then attached to the inner surface of a flow cell. Sequencing was performed for 22 cycles, where each cycle included subroutines for (i) Extension: adding a reversibly terminated nucleotide to primers that were hybridized to the immobilized templates, (ii) Examination: forming and detecting stabilized ternary complexes on the reversibly terminated, immobilized primer-template hybrids, and (iii) Activation: cleaving the reversible terminator from the extended primers.
The Examination subroutine was performed in a 2×2 format as diagrammed in FIG. 1. Specifically, a mixture of Cy5 labelled dATP, Cy7 labelled dCTP, unlabeled dTTP and unlabeled dGTP was delivered to the flow cell that contained polymerase-nucleic acid complexes on the beads, the system paused fluid flow to allow nucleotides to bind at cognate positions of the templates, thereby forming ternary complexes. Free nucleotide was removed from the flow cell by flowing IMG reagent. […] The flow cell was then imaged via fluorescence microscopy to detect ternary complexes that contained a labeled nucleotide that was a cognate for the next correct nucleotide in each of the template nucleic acids. The flow cell was then washed with NSB solutions having various compositions as set forth below. After the NSB wash, a mixture of Cy5 labelled dTTP, Cy7 labelled dGTP, unlabeled dCTP and unlabeled dATP was delivered to the flow cell, and the system paused fluid flow to allow nucleotides to bind, thereby forming ternary complexes. Free nucleotide was removed by flowing IMG reagent and then the flow cell was again imaged.
The concentrations are provided as a percentage in weight of compound per total volume of NSB (w/v) or volume of compound per total volume of NSB (v/v). The concentration can also be expressed as a molar concentration and this can be helpful, for example, as a way to compare the amounts of each compound tested. […] The molar concentrations of 1,5 pentanediol, propylene glycol, hexylene glycol, sulfolane, DMSO, ethyl methyl sulfone and 2-mthoxy ethanol in NSB were similar to the molar concentration of isopropanol in the SOP NSB.
The effectiveness of each candidate compound was determined from the following crosstalk metrics. The A_T crosstalk metric indicates how much Cy5-dATP is carried over from the first exam such that it is detected in the second exam. Similarly, the C_G crosstalk metric indicates how much Cy7-dCTP is carried over from the first exam such that it is detected in the second exam. A lower value for the crosstalk metric indicates less carryover and is correlated with improved sequencing results. On the other hand, a higher value for the crosstalk metric indicates more carryover and lower quality sequencing results.
Results were evaluated as a comparison of crosstalk metrics measured for NSB having 20% v/v/isopropanol (SOP) compared to the crosstalk metric measured for NSB having each of the respective candidate compounds. In all cases, the comparisons were based on data obtained for sequencing runs performed in a single lane of a flow cell. The format of the run was as follows: Cycle_1(SOP)=>Cycle_2(candidate)=>Cycle_3(SOP)=>Cycle_4(candidate) and so on. The crosstalk metric was determined separately for the SOP and candidate cycles, respectively. This format was used to minimize the confounding influence of run-to-run variations when comparing between SOP and each candidate.

[2] = Stability of NSB fluid foam in a flow cell; type: physicochemical; conditions: 28% 1,6 hexanediol or 20% isopropanol, 55° C., images before and after 1 minute pause in flow
Method: NSB fluid foam having 20% isopropanol (SOP) or 28% 1,6 hexanediol was flowed through a flow cell (40 μl/s flow rate, 300 μl volume, 35 psi positive pressure, 55° C.). The flow was paused and a first image of the foam was acquired immediately. The foam was allowed to sit for 60 seconds and then a second image was taken.

[3] = Solubility of candidate compound in NSB; type: physicochemical; conditions: NSB solution
[4] = NSB with candidate at Table 1 concentration, lower = less carryover

With `NCCCO` [3-Amino-1-propanol] the “Capability of stripping nucleotides from ternary complexes while retaining polymerase on primed-template nucleic acid” value (“Capability of stripping nucleotides” below) [1] was “can also be useful”.
For `CC(O)CCO` (stereo not drawn) [1,3 butanediol], the “Capability of stripping nucleotides” value [1] was “capable of stripping nucleotides from ternary complexes while retaining polymerase association with primed-template nucleic acid” and the “Overall performance of NSB having candidate vs NSB having isopropanol” value (“Overall performance … vs NSB having isopropanol” for short) [1] was “did not perform as well as isopropanol”.
With `OCCCCCCCO` [1,7 heptanediol] the “A_T crosstalk (Cy5-dATP carryover from first exam into second exam) compared to NSB having isopropanol” value [1, 4] was “better”, the “C_G crosstalk (carryover of C signal from first exam into G channel of second exam) compared to NSB having isopropanol” value [1, 4] was “better” and the “Overall performance … vs NSB having isopropanol” value [1] was “outperformed NSB having isopropanol”.
For `CCS(C)(=O)=O` [ethyl methyl sulfone], the “A_T crosstalk (Cy5-dATP carryover from first exam into second exam) compared to NSB having isopropanol” value [1, 4] was “stronger”, the A_T crosstalk metric [1, 4] was “below 0.2” and the “Concentration range in NSB found effective” value (shortened to “Concentration range”) [1] was 1.4-2.8%.
In the case of `C[S+](C)[O-]` [DMSO, dimethyl sulfoxide], the “A_T crosstalk (Cy5-dATP carryover from first exam into second exam) compared to NSB having isopropanol” value [1, 4] is reported as “stronger”, the A_T crosstalk metric [1, 4] is reported as “below 0.35” and the “Concentration range” value [1] is reported as 21-26%.
In the case of `CC(C)O` [Isopropanol, reference compound], the “Concentration range” value [1] is reported as 16-20% and the Foam stability [2] is reported as “foam can be maintained to some degree”.
In the case of `CC(O)CO` (stereo not drawn) [Propylene glycol], the “Capability of stripping nucleotides” value [1] is reported as “capable of stripping nucleotides from ternary complexes while retaining polymerase association with primed-template nucleic acid” and the “Overall performance … vs NSB having isopropanol” value [1] is reported as “did not perform as well as isopropanol”.
In the case of hexylene glycol, the “Capability of stripping nucleotides” value [1] is reported as “capable of stripping nucleotides from ternary complexes while retaining polymerase association with primed-template nucleic acid” and the “Overall performance … vs NSB having isopropanol” value [1] is reported as “did not perform as well as isopropanol”.
With `COCCO` [2-methoxy ethanol] the “Capability of stripping nucleotides” value [1] was “can also be useful”.
In the case of `OCCCCCCO` [1,6 hexanediol], the “A_T crosstalk (Cy5-dATP carryover from first exam into second exam) compared to NSB having isopropanol” value [1, 4] is reported as “modestly lower”, the “C_G crosstalk (carryover of C signal from first exam into G channel of second exam) compared to NSB having isopropanol” value [1, 4] is reported as “significantly lower” and the “Concentration range” value [1] is reported as 10-31%. For the same molecule, the “Overall performance … vs NSB having isopropanol” value [1] was “outperformed NSB having isopropanol”, the Foam stability [2] was “greater foam stability” and the Flammability (Flammability) was “non-flammable”.
For `OCCCCCO` [1,5 pentanediol], the “A_T crosstalk (Cy5-dATP carryover from first exam into second exam) compared to NSB having isopropanol” value [1, 4] was “stronger”, the “C_G crosstalk (carryover of C signal from first exam into G channel of second exam) compared to NSB having isopropanol” value [1, 4] was “stronger” and the A_T crosstalk metric [1, 4] was “about 0.16”. For the same molecule, the C_G crosstalk metric [1, 4] was “about 0.16”.
In the case of `OCCCCCCCCO` [1,8 octanediol], the “Solubility in NSB” value [3] is reported as “not immediately soluble”.
For `O=S1(=O)CCCC1` [sulfolane], the “A_T crosstalk (Cy5-dATP carryover from first exam into second exam) compared to NSB having isopropanol” value [1, 4] was “comparable”, the “C_G crosstalk (carryover of C signal from first exam into G channel of second exam) compared to NSB having isopropanol” value [1, 4] was “better” and the “Overall performance … vs NSB having isopropanol” value [1] was “outperformed NSB having isopropanol”.
